Experimental data: patent publication US4888283A, “Selective inhibitors of benzylaminoxidases with respect to other aminoxidases” (priority 1985, dated 1989)
Counter-ions that a name gives are not always drawn.

Columns and labels:
BAO's = settings: background statement, cited from earlier work
[1] = tested on: Pure BAO obtained from swine plasma; assay: Compound as the substrate of BAO (production of H2O2); assay type: biochemical; design: key: the compound is the substrate; ns: the compound is not the substrate; settings: 37° C., air
Experimental: (§1) The oxidation of the compound is estimated in all cases by measuring the production of H2 O2. Such operation is carried out within a temperature-controlled bath set at 37° C. and stirred, in the presence of air. The production-of H2 O2 is quantitatively determined by the method of H. P. Lehman, K. H. Schosinsky, M. F. Beeler (Clin. Chem., 20, 1564 (1974)).
(§2) Pure BAO obtained from swine plasma by the procedure disclosed by F. Buffoni and H. Blaschko (Proc. Roy. Soc. B 161, 153 (1964)); DAO from swine kidney, as obtained and purified by the Sigma (St. Louis, Md., USA, 0.25 U/mg); purified LAO from swine aorta obtained by the procedure disclosed by F. Buffoni and L. Raimondi (Agents and Actions, 11, 38 (1981)). Rat liver mitochondria obtained by the procedure disclosed by G. W. Schneider and G. H. Hogeboon (J. Biol. Chem., 183, 123 (1950)) were employed as the source of MAO.

[2] = tested on: Pure BAO obtained from swine plasma; assay: Inhibition type on BAO (Lineweaver-Burk); assay type: biochemical; design: key: competitive inhibition; nc: not competitive inhibition; mixed inhibition; settings: 1/v vs. 1/s, 5 substrate concentrations
From the text: as §2
The inhibition type was evaluated by studying the effect of the compound on the enzymic rate (v) at 5 different concentrations of the substrate (s) and plotting the results by the classical procedure as 1/v vs. 1/s according to Lineweaver-Burk.

DAO from swine kidney [3] = biological target: T1, DAO from swine kidney (Sus scrofa, UniProt Q9TRC7); assay: Inhibition of diaminoxidase (DAO), isotopic method with 14C-putrescine; assay type: biochemical; settings: 30 minutes pre-incubation; 14C-putrescine 1 mM; mean ± s.e.
T1 construct: DAO from swine kidney, as obtained and purified by the Sigma; purchased Sigma (St. Louis); host or cells: swine kidney
T1 sequence (Q9TRC7 25-755): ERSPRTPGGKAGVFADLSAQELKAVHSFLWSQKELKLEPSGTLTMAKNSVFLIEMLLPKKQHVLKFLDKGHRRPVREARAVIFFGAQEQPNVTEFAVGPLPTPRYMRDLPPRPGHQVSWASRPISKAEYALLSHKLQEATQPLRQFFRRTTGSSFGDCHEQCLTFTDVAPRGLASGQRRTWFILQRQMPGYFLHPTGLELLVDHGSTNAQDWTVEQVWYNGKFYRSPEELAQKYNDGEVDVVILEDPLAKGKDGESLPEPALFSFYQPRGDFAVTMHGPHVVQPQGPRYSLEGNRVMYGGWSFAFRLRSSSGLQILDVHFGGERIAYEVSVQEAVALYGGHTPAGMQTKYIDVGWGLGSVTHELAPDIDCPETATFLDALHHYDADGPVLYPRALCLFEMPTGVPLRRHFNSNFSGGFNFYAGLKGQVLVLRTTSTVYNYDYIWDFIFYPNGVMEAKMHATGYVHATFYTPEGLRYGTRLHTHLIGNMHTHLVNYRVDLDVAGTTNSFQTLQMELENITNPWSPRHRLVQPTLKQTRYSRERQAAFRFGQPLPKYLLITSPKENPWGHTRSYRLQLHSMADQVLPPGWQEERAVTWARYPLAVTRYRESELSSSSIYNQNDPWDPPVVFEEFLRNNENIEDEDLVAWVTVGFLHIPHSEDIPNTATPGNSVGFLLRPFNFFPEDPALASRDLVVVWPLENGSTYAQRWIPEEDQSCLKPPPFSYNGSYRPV
Experimental: The quantitative determination of the diaminoxidases (DAO's) is performed by the isotopic method disclosed by J. Kusche, H. Richter, R. Hesterberg, J. Schmidt, W. Lorenz, (Agents and Actions, 3, 148-156 (1973)) employing ^14 C-putrescine as the substrate at the final concentration of 1 mM.
as §2
(§3) IC50 (M)=The molar concentration of the inhibitor that inhibits 50% of the enzyme activity at a saturating concentration of the substrate. Said concentration is calculated from curves obtained by pre-incubation of the compound for 30 minutes (at 6 different concentrations) with the enzyme before adding the substrate and determining the enzymic rate.
(§4) The repetition of the experiments allows to obtain the average values of the IC50 (M) as well as the relative standard errors.

DAO from swine kidney [4] = biological target: T1, DAO from swine kidney; assay: Compound as the substrate of DAO (production of H2O2); assay type: biochemical; design: key: the compound is the substrate; ns: the compound is not the substrate; settings: 37° C., air
Experimental: as §1, §2

[5] = tested on: MAO (rat liver mitochondria); assay: Compound as the substrate of MAO (production of H2O2); assay type: biochemical; design: key: the compound is the substrate; ns: the compound is not the substrate; settings: 37° C., air
Experimental: as §1, §2

[6] = biological target: Pure BAO obtained from swine plasma; assay: Inhibition of benzylaminoxidase (BAO), isotopic procedure with 14C-benzylamine; assay type: biochemical; settings: for IC50: 30 minutes pre-incubation, 14C-benzylamine 1,7 mM (saturating), mean ± s.e.; for Activity as inhibitors of BAO (in words): compounds already known in the literature, prepared again
Experimental: The quantitative determination of benzylaminoxidases (BAO's) is carried out by the isotopic procedure disclosed by F. Buffoni and G. Ignesti (Biochem. J.; 145, 369 (1975)) employing ^14 C-benzylamine as the substrate at the final concentration of 1,7 mM.
as §2, §3, §4

[7] = tested on: MAO (rat liver mitochondria); assay: Inhibition of monoaminoxidases (MAO), isotopic procedure with 14C-beta-phenylethylamine; assay type: biochemical; settings: 30 minutes pre-incubation; 14C-beta-phenylethylamine 1.7 mM; mean ± s.e.
Experimental: The quantitative determination of monoaminoxidases (MAO's) is carried out by the same procedure as the determination of BAO's, but ^14 C-beta-phenylethylamine is employed at the final concentration of 1.7 mM.
as §2, §3, §4

[8] = tested on: Pure BAO obtained from swine plasma; assay: Reversibility of BAO inhibition by dialysis; assay type: biochemical; design: key: reversible inhibition; irreversible inhibition; pr: partially reversible inhibition; settings: dialysis of the solution
From the text: as §2
The reversibility of the effect was evaluated showing that the inhibition caused by a certain concentration of the inhibitor (for instance the IC50 value) would be reverted by dialysis of the solution.

[9] = biological target: T2, purified LAO from swine aorta (Sus scrofa, UniProt P45845); assay: Inhibition of lysyloxidase (LAO), isotopic procedure with 3H-elastine; assay type: biochemical; settings: 30 minutes pre-incubation; 3H-elastine 0.150 mg/ml
T2 construct: purified LAO from swine aorta; from tissue; host or cells: swine aorta, purified by the procedure of Buffoni and Raimondi (1981)
T2 sequence (P45845 1-249): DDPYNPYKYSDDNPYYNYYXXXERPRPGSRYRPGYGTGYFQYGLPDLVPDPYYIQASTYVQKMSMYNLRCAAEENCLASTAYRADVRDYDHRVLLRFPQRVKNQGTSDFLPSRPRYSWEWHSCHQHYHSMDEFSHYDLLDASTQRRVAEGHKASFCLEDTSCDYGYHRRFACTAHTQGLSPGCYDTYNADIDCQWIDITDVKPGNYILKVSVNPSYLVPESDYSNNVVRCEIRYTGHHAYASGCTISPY
Experimental: The quantitative determination of lysyloxidase (LAO) is carried out by the isotopic procedure of […]. Biochem., 77, 141 (1977)) employing as the substrate ^3 […] prepared as disclosed by […], and G. R. Martin (Proc. Natl. Acad. Sci. USA 61, 708 (1968)) and isolated as disclosed by […]. Smith (Biochemistry, 8, 2940 (1969)). […] Pure BAO obtained from swine plasma by the procedure disclosed by F. Buffoni and H. Blaschko (Proc. Roy. Soc. B 161, 153 (1964)); DAO from swine kidney, as obtained and purified by the Sigma (St. Louis, Md., USA, 0.25 U/mg); purified LAO from swine aorta obtained by the procedure disclosed by F. Buffoni and L. Raimondi (Agents and Actions, 11, 38 (1981)). Rat liver mitochondria obtained by the procedure disclosed by G. W. Schneider and […]. Biol. Chem., 183, 123 (1950)) were employed as the source of MAO. IC50 (M)=The molar concentration of the inhibitor that inhibits 50% of the enzyme activity at a saturating concentration of the substrate. Said concentration is calculated from curves obtained by pre-incubation of the compound for 30 minutes (at 6 different concentrations) with the enzyme before adding the substrate and determining the enzymic rate. The repetition of the experiments allows to obtain the average values of the IC50 (M) as well as the relative standard errors.

SMILES | IC50 (BAO's; read-out: I50 on BAO's) [µM] | Kind of inhibition of BAO's (BAO's; high concentrations) | BAO: compound as the substrate [1] | BAO: inhibition type [2] | IC50 (DAO from swine kidney [3]) [µM] | DAO: compound as the substrate (DAO from swine kidney [4]) | MAO: compound as the substrate [5] | IC50 [6] [µM] | Activity as inhibitors of BAO (in words) [6] | IC50 [7] [µM] | BAO: reversibility of the inhibition [8] | IC50 [9] [µM]
N#CCCN [beta-aminopropionitrile] | > 10000 | irreversibly | – | – | – | – | – | – | – | – | – | –
COc1cccc(OC)c1CN.Cl [Example 7, 2,6-di-methoxybenzylamine hydrochloride] | – | – | ns | m | 5600 ± 0.3 | s | s weak | 120 | active indeed, though at a low degree | 190 | r | –
CCOc1cccc(OCC)c1CN.Cl [Example 1, 2,6-diethoxybenzylamine hydrochloride] | – | – | ns | m | 12500 ± 1 | s | ns | 0.18 | – | 6400 ± 0.5 | pr | –
Cl.NCc1ccccc1CO [Example 6, 2-hydroxymethylbenzylamine hydrochloride] | – | – | s | – | – | s | ns | 1000 | active indeed, though at a low degree | > 1000 | – | –
COCOc1cccc(OCOC)c1CN.Cl [Example 9, 2,6-bis(methoxymethoxy)benzylamine hydrochloride] | – | – | s | m | > 10000 | s | ns | 0.95 | – | 22000 ± 60 | r | > 1000
CCCc1cccc(CCC)c1CN.Cl [Example 12, 2,6-di-n-propylbenzylamine hydrochloride] | – | – | ns | nc | 1000 | s weak | s | – | – | 1000 | r | 1000
NCc1c(O)cccc1O [Example 8, 2,6-dihydroxybenzylamine hydrochloride] | – | – | – | – | – | – | – | 1000 | – | > 1000 | – | –
CCCOc1cccc(OCCC)c1CN.Cl [Example 2, 2,6-di(n-propoxy)benzylamine hydrochloride] | – | – | ns | m | – | s weak | s | – | – | > 1000 | pr | –
CCCCOc1cccc(OCCCC)c1CN.Cl [Example 4, 2,6-di(n-butoxy)benzylamine hydrochloride] | – | – | ns | nc | – | s | ns | 0.14 | – | > 1000 | pr | –
COCc1cccc(COC)c1CN.Cl [Example 10, 2,6-bis(methoxymethyl)benzylamine hydrochloride] | – | – | ns | m | – | s | ns | – | – | > 1000 | pr | –
CCc1cccc(CC)c1CN.Cl [Example 11, 2,6-diethylbenzylamine hydrochloride] | – | – | ns | nc | – | s | s | – | – | > 1000 | r | –
CC(C)Oc1cccc(OC(C)C)c1CN.Cl [Example 3, 2,6-diisopropoxybenzylamine hydrochloride] | – | – | s weak | – | – | s weak | s weak | > 1000 | – | > 1000 | – | –
Cl.NCc1c(OCCO)cccc1OCCO [Example 13, 2,6-bis(hydroxyethoxy)benzylamine hydrochloride] | – | – | ns | m | – | s | ns | 2.6 | – | > 1000 | pr | –
Cl.NCc1ccccc1O [Example 5, 2-hydroxybenzylamine hydrochloride] | – | – | s | – | 1000 | s | ns | 1000 | active indeed, though at a low degree | > 1000 | – | –
